2 compounds from paper PMC2921948 (Clinical cancer research : an official journal of the …, 2010) can be followed below.

For test [1], the target named is T1, human serum albumin (HSA) (Homo sapiens, UniProt P02768). Description: fluorescence polarization displacement of dansyl sarcosine. The test is classed as binding. (In general: Fluorescence polarisation rises when a labelled molecule tumbles more slowly, as on binding a larger partner.)
For test [2], the target named is T1, human serum albumin (HSA). Described as above. In kind it is binding. The source holds these as a separate data set.

Where two headings read alike, the source gives them in different places.

T1 sequence (P02768 25-609): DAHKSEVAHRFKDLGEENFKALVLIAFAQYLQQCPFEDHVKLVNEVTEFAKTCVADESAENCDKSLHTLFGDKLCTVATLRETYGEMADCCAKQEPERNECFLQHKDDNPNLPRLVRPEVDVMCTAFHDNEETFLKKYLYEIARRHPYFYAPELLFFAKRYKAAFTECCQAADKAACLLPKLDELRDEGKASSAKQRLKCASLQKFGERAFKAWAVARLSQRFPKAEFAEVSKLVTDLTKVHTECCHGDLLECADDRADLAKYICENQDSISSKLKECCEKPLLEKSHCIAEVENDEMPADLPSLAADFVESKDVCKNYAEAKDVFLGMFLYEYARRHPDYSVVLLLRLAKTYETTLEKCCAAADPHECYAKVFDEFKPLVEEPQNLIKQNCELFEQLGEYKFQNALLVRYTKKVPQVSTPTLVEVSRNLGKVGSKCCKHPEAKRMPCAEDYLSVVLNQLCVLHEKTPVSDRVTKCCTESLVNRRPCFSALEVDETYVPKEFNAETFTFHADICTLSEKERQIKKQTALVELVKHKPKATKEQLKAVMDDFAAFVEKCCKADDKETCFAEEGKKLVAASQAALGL

The term IC50 denotes the midpoint of a concentration-inhibition curve. Low readings indicate inhibition by little substance, high ones a need for much substance. Compound `CC1(C)CCC(c2ccc(Cl)cc2)=C(CN2CCN(c3ccc(C(=O)NS(=O)(=O)c4ccc(N[C@H](CCN5CCOCC5)CSc5ccccc5)c(S(=O)(=O)C(F)(F)F)c4)cc3)CC2)C1` [ABT-263] yielded an IC50 in test [1] of 37 µM. With `CN(C)CC[C@H](CSc1ccccc1)Nc1ccc(S(=O)(=O)NC(=O)c2ccc(N3CCN(Cc4ccccc4-c4ccc(Cl)cc4)CC3)cc2)cc1[N+](=O)[O-]` [ABT-737], in test [2], the IC50 was 711 µM.
